The values that follow come from paper PMC11997541, “Synthesis and Biological Activity of Ultrashort Antimicrobial Peptides Bearing a Non‐Coded Amino Acid” (Journal of Peptide Science, 2025).

For data set [1] the following is noted: no CD signal in phosphate buffer (PB) pH 7.4, peptide 1 mM, room temperature. On the procedure: Electronic CD curves in the amide region (190–260 nm) were obtained on a Jasco (Tokyo, Japan) model J‐1500 spectropolarimeter. A fused quartz cell of 0.02 cm pathlength (Hellma, Mühlheim, Germany) was used to record spectra in phosphate buffer pH 7.4 (PB), and aqueous sodium dodecyl sulfate (SDS, 30 mM). Spectra were collected at room temperature with peptide concentrations of 1 mM. After baseline subtraction, the values recorded were transformed into [θ]T, the total molar ellipticity (deg × cm^2 × dmol^−1) by means of the JASCO software Spectra Manager.

The next data set deals with S. ent. ATCC 13076. Kind of data set: Kirby–Bauer disk diffusion. The data set is classed as cell-based, Salmonella enterica. To be noted: 20 h; for diameter of growth inhibition, S. ent. ATCC 13076: 100 μg peptide per 6 mm disk, Mueller–Hinton pH 7.2–7.4, 37°C, — read as no inhibition. On the procedure: (§1) The antibacterial activity was tested on Gram‐positive ( Staphylococcus aureus ATCC 25923, Streptococcus pyogenes ATCC 19615, Listeria monocytogenes ATCC 7644, Bacillus subtilis ATCC […], Enterococcus faecalis ATCC 29212, E. faecalis ATCC 51299, and some clinical isolates, Streptococcus mitis , Streptococcus oralis , S. pyogenes Group A and Streptococcus Group G), Gram‐negative ( Klebsiella aerogenes ATCC 13048, Salmonella enterica ATCC […], Escherichia coli ATCC 25922, Pseudomonas aeruginosa ATCC 27853, Acinetobacter baumannii ATCC […], Klebsiella pneumoniae ATCC 13883, Proteu mirabilis ATCC 14153) bacterial strains, and Saccharomyces cerevisiae ATCC 9763, according to the standardized disk diffusion Kirby–Bauer method.
(§2) Peptide solutions in DMSO were adsorbed into paper disks (Macherey‐Nagel 615, Germany) of 6 mm in diameter. Every disk was loaded with 100 μg of peptide. The bacteria inoculum was of 0.5 Mc Farland, corresponding to 1–2 x 10^8 CFU/mL. The tests were carried out on Mueller–Hinton culture medium at pH 7.2–7.4 with incubation at 37°C for 20 h. Peptide activity was determined by measuring the diameters (in millimeters) of bacteria/fungi growth inhibition around the paper disks.
Background: In agar diffusion tests the substance spreads into inoculated agar from a disc or well.

The subject of data set [2] is various bacterial strains, both Gram‐positive and Gram‐negative, as well as S. cerevisiae. Kind of data set: Kirby–Bauer disk diffusion, whole panel. The data set is classed as cell-based. The conditions noted are these: 100 μg peptide per disk, 37°C, 20 h, all strains tested. On the procedure: as §1, §2
Data set [3] is described as follows: Peptide stability in serum. The data set is classed as in vitro ADME. To be noted: human serum in HEPES 25 mM pH 7.6, 37°C, over 24 h, HPLC or HPLC–MS, triplicate. On the procedure: The peptides were dissolved in DMSO at a concentration of 5 mg/mL. In Eppendorf tubes, 1 mL of HEPES buffer (25 mM, pH = 7.6) was temperature equilibrated at 37°C before adding 250 μL of human serum and 20 μL of peptide solution. The reaction was monitored for 24 h. At fixed intervals, 100 μL of the solution was withdrawn and added with 200 μL of absolute ethanol. The sample was kept on ice for 15 min and then centrifuged at 16,000 g for 5 min. Finally, the supernatant solution was analyzed by HPLC or HPLC–MS..
A peptide of similar length, not resistant to degradation in serum, was used as a positive test. The peptide sequence is as follows: Tyr‐Ser‐Ser‐Phe‐Leu.
To verify peptide stability in buffer solution, samples containing peptide solutions, buffer, and ethanol were also analyzed. All of the degradation experiments were carried out in triplicate.

Residues, ends and D or L forms follow the SMILES beside them.

Take `CCCCCCCCCCCCCCCC(=O)N[C@@H](Cc1c[nH]cn1)C(=O)N[C@@H](C)C(=O)N[C@H](C)C(=O)N[C@@H](Cc1c[nH]cn1)C(N)=O` [P0, Palm‐His‐Ala‐D‐Ala‐His‐NH2] (HELM PEPTIDE1{[CCCCCCCCCCCCCCCC(=O)[*:2]].H.A.[dA].H.[am]}$$$$V2.0): in data set [1], the “solubility in water, in words” value is given as “poor solubility in water”. Further, in the data set with S. ent. ATCC 13076, the “diameter of growth inhibition, S. ent. ATCC 13076” value worked out at 10 mm. Besides, the “activity against Salmonella enterica ATCC 13076, in words” value in the data set on S. ent. ATCC 13076 (100 μg peptide per disk, 37°C) is recorded as “selectively active”.
`CC(=O)N[C@@H](Cc1c[nH]cn1)C(=O)N[C@@H](C)C(=O)N[C@H](C)C(=O)N[C@@H](Cc1c[nH]cn1)C(=O)NCCCCCCCCCCC(N)=O` [P3, Ac‐His‐Ala‐D‐Ala‐His‐Aun‐NH2] (HELM PEPTIDE1{[ac].H.A.[dA].H.[O=C(CCCCCCCCCCN[*:1])[*:2]].[am]}$$$$V2.0): the “antimicrobial activity over the panel, in words” value in data set [2] is reported as “no activity”.
`CCCCCCCCCCCC(=O)N[C@H](Cn1ccnc1)C(=O)N[C@@H](C)C(=O)N[C@H](C)C(=O)N[C@H](Cn1ccnc1)C(N)=O` [P8, Laur‐D‐His*‐Ala‐D‐Ala‐D‐His*‐NH2]: the “serum stability, ranking in words” value in data set [3] is recorded as “best candidates in terms of serum stability”.
Consider `CCCCCCCCCCCC(=O)N[C@@H](Cc1c[nH]cn1)C(=O)N[C@@H](C)C(=O)N[C@H](C)C(=O)N[C@@H](Cc1c[nH]cn1)C(N)=O` [P6, Laur‐His‐Ala‐D‐Ala‐His‐NH2] (HELM PEPTIDE1{[CCCCCCCCCCCC(=O)[*:2]].H.A.[dA].H.[am]}$$$$V2.0), for which, in the data set with S. ent. ATCC 13076, the “diameter of growth inhibition, S. ent. ATCC 13076” value came to 9 mm.
On to `CCCCCCCCCCCCCCCC(=O)N[C@H](Cn1ccnc1)C(=O)N[C@@H](C)C(=O)N[C@H](C)C(=O)N[C@H](Cn1ccnc1)C(N)=O` [P2, Palm‐D‐His*‐Ala‐D‐Ala‐D‐His*‐NH2], for which, in data set [1], the “solubility in water, in words” value is “poor solubility in water”. For the same molecule, the “serum stability, ranking in words” value in data set [3] is reported as “best candidates in terms of serum stability”.
In the case of `CCCCCCCCCCCCCCCC(=O)N[C@@H](Cn1ccnc1)C(=O)N[C@@H](C)C(=O)N[C@H](C)C(=O)N[C@@H](Cn1ccnc1)C(N)=O` [P1, Palm‐L‐His*‐Ala‐D‐Ala‐L‐His*‐NH2], in data set [1], the “solubility in water, in words” value is recorded as “poor solubility in water”.
